Assay results from patent US9113629B2, “4-amino-6-(4-substituted-phenyl)-picolinates and 6-amino-2-(4-substituted-phenyl)-pyrimidine-4-carboxylates and their use as herbicides” (DOW AGROSCIENCES LLC, priority 2013, dated 2015).

Legend:
Assay in all cases: Post-emergent Test III, herbicidal activity in wheat and barley
Type in all cases: in vivo
[1] = tested on: SASKR: Russian thistle (Salsola iberica); settings: 21 days after application; for pest or weed control at 35 g/ha: 35 g ai/ha; for pest or weed control at 70 g/ha: 70 g ai/ha; for GR50 SASKR / GR80 SASKR: probit analysis; for GR50 SASKR: dose for 50 percent growth reduction; for GR80 SASKR: dose for 80 percent growth reduction
Method in brief: (§1)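 Plants at the second to third true-leaf stage, grown in a greenhouse at about 18/17 °C with a 14 h photoperiod, were sprayed post-emergence at 187 L/ha with the high rate and ½× to 1/16× serial dilutions in an acetone/DMSO/crop-oil/surfactant carrier. Injury was rated visually at 21 d on a 0–100% scale, and GR20–GR90 were derived by probit analysis.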

[2] = tested on: VERPE: bird's-eye speedwell (veronica persica); settings: 21 days after application; for pest or weed control at 35 g/ha: 35 g ai/ha; for pest or weed control at 70 g/ha: 70 g ai/ha; for GR50 VERPE / GR80 VERPE: probit analysis; for GR50 VERPE: dose for 50 percent growth reduction; for GR80 VERPE: dose for 80 percent growth reduction
Method in brief: as §1

[3] = tested on: HORSS: barley, including spring and winter (Hordeum vulgare); settings: 21 days after application; for pest or weed control at 35 g/ha: 35 g ai/ha; for pest or weed control at 70 g/ha: 70 g ai/ha; for GR20 HORSS: probit analysis, dose for 20 percent growth reduction (crop)
Method in brief: as §1

[4] = tested on: KCHSC: kochia (Kochia scoparia); settings: 21 days after application; for pest or weed control at 35 g/ha: 35 g ai/ha; for pest or weed control at 70 g/ha: 70 g ai/ha; for GR50 KCHSC / GR80 KCHSC: probit analysis; for GR50 KCHSC: dose for 50 percent growth reduction; for GR80 KCHSC: dose for 80 percent growth reduction
Method in brief: as §1

[5] = tested on: VIOSS: wild pansy (Viola tricolor), field violet (Viola arvensis); settings: 21 days after application; for pest or weed control at 35 g/ha: 35 g ai/ha; for pest or weed control at 70 g/ha: 70 g ai/ha; for GR50 VIOSS / GR80 VIOSS: probit analysis; for GR50 VIOSS: dose for 50 percent growth reduction; for GR80 VIOSS: dose for 80 percent growth reduction
Method in brief: as §1

[6] = tested on: TRZSS: wheat, including spring and winter (Triticum aestivum); settings: 21 days after application; for pest or weed control at 35 g/ha: 35 g ai/ha; for pest or weed control at 70 g/ha: 70 g ai/ha; for GR20 TRZSS: probit analysis, dose for 20 percent growth reduction (crop)
Method in brief: as §1

[7] = tested on: MATSS: scented mayweed (Matricaria chamomilla), pineappleweed (Matricaria matricarioides); settings: 21 days after application; for pest or weed control at 35 g/ha: 35 g ai/ha; for pest or weed control at 70 g/ha: 70 g ai/ha; for GR50 MATSS / GR80 MATSS: probit analysis; for GR50 MATSS: dose for 50 percent growth reduction; for GR80 MATSS: dose for 80 percent growth reduction
Method in brief: as §1

[8] = Salsola tragus, post-emergence, 504 h, read-out: Visual Gorowth Reduction (%) 21 days After Application SASKR
[9] = Veronica persica, post-emergence, 504 h, read-out: Visual Gorowth Reduction (%) 21 days After Application VERPE
[10] = Hordeum vulgare, post-emergence, 504 h, read-out: Visual Gorowth Reduction (%) 21 days After Application HORSS
[11] = Bassia scoparia, post-emergence, 504 h, read-out: Visual Gorowth Reduction (%) 21 days After Application KCHSC
[12] = Viola tricolor, post-emergence, 504 h, read-out: Visual Gorowth Reduction (%) 21 days After Application VIOSS
[13] = Triticum aestivum, post-emergence, 504 h, read-out: Visual Gorowth Reduction (%) 21 days After Application TRZSS
[14] = Matricaria chamomilla, post-emergence, 504 h, read-out: Visual Gorowth Reduction (%) 21 days After Application MATSS

SMILES	pest or weed control at 35 g/ha [1, 8]	pest or weed control at 70 g/ha [1, 8]	GR50 SASKR [1]	GR80 SASKR [1]	pest or weed control at 35 g/ha [2, 9]	pest or weed control at 70 g/ha [2, 9]	GR50 VERPE [2]	GR80 VERPE [2]	pest or weed control at 35 g/ha [3, 10]	pest or weed control at 70 g/ha [3, 10]	GR20 HORSS [3]	pest or weed control at 35 g/ha [4, 11]	pest or weed control at 70 g/ha [4, 11]	GR50 KCHSC [4]	GR80 KCHSC [4]	pest or weed control at 35 g/ha [5, 12]	pest or weed control at 70 g/ha [5, 12]	GR50 VIOSS [5]	GR80 VIOSS [5]	pest or weed control at 35 g/ha [6, 13]	other results
COC(=O)c1nc(-c2ccc(I)c(F)c2)c(F)c(N)c1Cl [Compound 132]	75 to 84%	75 to 84%	1 g ai/ha	66 g ai/ha	0 to 29%	75 to 84%	58 g ai/ha	99 g ai/ha	60 to 74%	75 to 84%	9 g ai/ha	85 to 94%	85 to 94%	4 g ai/ha	20 g ai/ha	95 to 100%	95 to 100%	9 g ai/ha	17 g ai/ha	60 to 74%	pest or weed control at 140 g/ha ([1]; Salsola tragus, post-emergence, 504 h, 140 g ai/ha, read-out: Visual Gorowth Reduction (%) 21 days After Application SASKR): 75 to 84%; pest or weed control at 140 g/ha ([2]; Veronica persica, post-emergence, 504 h, 140 g ai/ha, read-out: Visual Gorowth Reduction (%) 21 days After Application VERPE): 85 to 94%; pest or weed control at 140 g/ha ([3]; Hordeum vulgare, post-emergence, 504 h, 140 g ai/ha, read-out: Visual Gorowth Reduction (%) 21 days After Application HORSS): 95 to 100%; pest or weed control at 140 g/ha ([4]; Bassia scoparia, post-emergence, 504 h, 140 g ai/ha, read-out: Visual Gorowth Reduction (%) 21 days After Application KCHSC): 95 to 100%; pest or weed control at 140 g/ha ([5]; Viola tricolor, post-emergence, 504 h, 140 g ai/ha, read-out: Visual Gorowth Reduction (%) 21 days After Application VIOSS): 95 to 100%; pest or weed control at 70 g/ha [6, 13]: 60 to 74%; pest or weed control at 140 g/ha ([6]; Triticum aestivum, post-emergence, 504 h, 140 g ai/ha, read-out: Visual Gorowth Reduction (%) 21 days After Application TRZSS): 75 to 84%; GR20 TRZSS [6]: 10 g ai/ha; pest or weed control at 35 g/ha [7, 14]: 0 to 29%; pest or weed control at 70 g/ha [7, 14]: 30 to 44%; pest or weed control at 140 g/ha ([7]; Matricaria chamomilla, post-emergence, 504 h, 140 g ai/ha, read-out: Visual Gorowth Reduction (%) 21 days After Application MATSS): 30 to 44%; GR50 MATSS [7]: >140 g ai/ha; GR80 MATSS [7]: >140 g ai/ha
Nc1c(F)c(-c2ccc(I)c(F)c2F)nc(C(=O)O)c1Cl [Compound 141, 4-amino-3-chloro-6-(2,3-difluoro-4-iodophenyl)-5-fluoropicolinic acid]	75 to 84%	85 to 94%	4 g ai/ha	40 g ai/ha	75 to 84%	85 to 94%	14 g ai/ha	43 g ai/ha	85 to 94%	95 to 100%	1 g ai/ha	75 to 84%	85 to 94%	7 g ai/ha	28 g ai/ha	95 to 100%	95 to 100%	7 g ai/ha	11 g ai/ha	75 to 84%	pest or weed control at 70 g/ha [6, 13]: 85 to 94%; GR20 TRZSS [6]: 1 g ai/ha; pest or weed control at 35 g/ha [7, 14]: 75 to 84%; pest or weed control at 70 g/ha [7, 14]: 95 to 100%; GR50 MATSS [7]: 15 g ai/ha; GR80 MATSS [7]: 33 g ai/ha
Nc1c(F)c(-c2ccc(I)c(F)c2)nc(C(=O)O)c1Cl [Compound 157]	75 to 84%	85 to 94%	11 g ai/ha	34 g ai/ha	30 to 44%	60 to 74%	50 g ai/ha	>140 g ai/ha	85 to 94%	95 to 100%	1 g ai/ha	85 to 94%	85 to 94%	6 g ai/ha	18 g ai/ha	95 to 100%	95 to 100%	1 g ai/ha	4 g ai/ha	75 to 84%	pest or weed control at 70 g/ha [6, 13]: 75 to 84%; GR20 TRZSS [6]: 1 g ai/ha; pest or weed control at 35 g/ha [7, 14]: 60 to 74%; pest or weed control at 70 g/ha [7, 14]: 75 to 84%; GR50 MATSS [7]: 21 g ai/ha; GR80 MATSS [7]: 64 g ai/ha
Nc1c(F)c(-c2ccc(Br)cc2F)nc(C(=O)O)c1Cl [Compound 163]	75 to 84%	85 to 94%	3 g ai/ha	27 g ai/ha	75 to 84%	95 to 100%	13 g ai/ha	30 g ai/ha	85 to 94%	95 to 100%	1 g ai/ha	75 to 84%	85 to 94%	8 g ai/ha	36 g ai/ha	75 to 84%	95 to 100%	14 g ai/ha	29 g ai/ha	75 to 84%	pest or weed control at 70 g/ha [6, 13]: 75 to 84%; GR20 TRZSS [6]: 1 g ai/ha; pest or weed control at 35 g/ha [7, 14]: 75 to 84%; pest or weed control at 70 g/ha [7, 14]: 95 to 100%; GR50 MATSS [7]: 5 g ai/ha; GR80 MATSS [7]: 24 g ai/ha
